In the assay the test system is all tested bacterial strains, including non-staphylococci strains. Put plainly: Broth microdilution MIC, summary over all strains tested. The conditions noted are these: read-out: MIC of DTT.

With `O[C@@H](CS)[C@@H](O)CS` (racemic) [DTT, dithiothreitol, reference compound], the MIC is more than 75 mM.

The MIC is the least concentration at which growth counts as inhibited.
